Test results from publication PMC6470603, “Design and Synthesis of Matrine Derivatives as Novel Anti-Pulmonary Fibrotic Agents via Repression of the TGFβ/Smad Pathway” (Molecules, 2019).

Key:
[1] = tested on: TGF-β1 induced total collagen accumulation in MRC-5 cells; assay: Sircol collagen assay: inhibition of TGF-β1-induced total collagen accumulation; type: cell-based, human; conditions: for IC50: Homo sapiens, MRC5, 10 ng/mL TGF-β1, 48 h, Sircol collagen assay; for SI, selectivity index (SI = CC50/IC50): MRC-5 cells
Procedure: Higher SI values indicates better safety profile.
MRC-5 cells in 1 × 10^5 cells/mL density were seeded in TC treated 96-well plates and allowed to reach confluence for 48 h. The cells were then starved using MEM-NEAA containing 0.2% BSA for 24 h. After starvation, the medium was changed to MEM-NEAA supplemented with 0.2% BSA, 100 μM L-Proline, 100 μM Ascorbic acid, with or without 10 ng/mL TGF-β1 (Peprotech) in the presence of vehicle or different concentrations of compounds. After 48 h incubation, the MRC-5 cells were washed with phosphate buffered saline (PBS) and fixed in −20 °C precooled methanol for 10 min. The cells were than washed with PBS before incubation in 0.1% PSR staining solution (0.1% Sirus red in saturated water solution of picric acid) for 1 h. The staining solution was then removed and the cells were washed with 0.1% acetic acid for three times. 200 μL of 0.1 mol/L sodium hydroxide solution were added to each well and the plates were placed on a rocking platform for 1 h. The optical density (OD) values at 550 nm were determined with an Infinite 2000 spectrophotometer.

[2] = Cytotoxicity assay (CCK-8); conditions: human, MRC-5 cells (human fetal lung fibroblasts)
Procedure: Cytotoxicity of all compounds were also determined against MRC-5 cells, so as to calculate selectivity index (SI, CC50/IC50).
MRC-5 cells in passage between 21 to 26 were used for experiments.
MRC-5 cells were incubated with different concentrations of compounds for 48 h, and then 10 μL of CCK-8 solution were added to each well. The cells were incubated at 37 °C for another 3 h before determining the OD values at 492 nm. DMSO at 0.1% v/v final concentration was used to solubilize the test compounds, except for compound 3b, 3c, and 3e, where 1% v/v DMSO was used to ensure complete solubilization.

MRC-5 fibroblasts = assay: Scratch (wound healing) assay, TGF-β1-induced fibroblast migration; type: cell-based, human; conditions: 1000 μM, 10 ng/mL TGF-β1, 24 h (TGF-β1 alone 85.0%)
Procedure: Fibroblast migration is the key event in pulmonary fibrogenesis. […] Inhibition of lung fibroblasts migration is a promising potential therapeutic target for IPF. We performed wound healing assay to investigate the inhibitory effect of 3f and matrine against fibroblast migration (Figure 7).
MRC-5 cells were seeded on 6-well plates and allowed to reach confluence for 48 h. The cell monolayer was gently scratched with a 1 mL pipette tip across the center of the well. After scratching, the cells were washed twice with medium to remove detached cells. The cells were then treated with or without 10 ng/mL TGF-β1 in the presence of vehicle or 10 μM 3f for 24 h. The gap area in wound region was quantitatively evaluated using ImageJ [30] and MRI wound healing tool plugin [31].

Row | SMILES | IC50 [1] [µM] | SI, selectivity index (SI = CC50/IC50) [1] | CC50 at 48 h [2] [µM] | closure of wound area over 24 h period (MRC-5 fibroblasts) [%]
1 | O=C1CC(N2CCOCC2)C[C@@H]2[C@H]3CCCN4CCC[C@@H](CN12)[C@@H]34 (stereo partly shown) [2d, 13-morpholinocyclohexane-matrine] | 138 ± 9.8 | 3.7 | 507 ± 25.3 | –
2 | COc1cccc2c1ccn2C1CC(=O)N2C[C@@H]3CCCN4CCC[C@@H]([C@H]34)[C@H]2C1 (stereo partly shown) [3c, 13-(4-methoxy-1H-indol-1-yl)-matrine] | 44.7 ± 3.6 | 1.3 | 56.7 ± 3.9 | –
3 | Cc1ccc(=O)n(-c2ccccc2)c1 [Pirfenidone, reference compound] | 1320 ± 98 | 3.1 | 4160 ± 239 | –
4 | O=C1CC(n2ccc3cnccc32)CC2C3CCCN4CCCC(CN12)C34 (stereo not shown) [3j, 13-(1H-pyrrolo[3,2-c]pyridin-1-yl)-matrine] | 16.7 ± 3.5 | 6.8 | 114 ± 5.9 | –
5 | N#Cc1ccc2c(ccn2C2CC(=O)N3C[C@@H]4CCCN5CCC[C@@H]([C@H]45)[C@H]3C2)c1 (stereo partly shown) [3h, 13-(5-cyano-1H-indol-1-yl)-matrine] | 72.1 ± 4 | 2.1 | 154 ± 11 | –
6 | O=C1CC(n2ccc3ccc([N+](=O)[O-])cc32)C[C@@H]2[C@H]3CCCN4CCC[C@@H](CN12)[C@@H]34 (stereo partly shown) [3m, 13-(6-nitro-1H-indol-1-yl)-matrine] | 19.3 ± 2.2 | 2.8 | 53.3 ± 1.9 | –
7 | O=C1CC(N2CCCC2)C[C@@H]2[C@H]3CCCN4CCC[C@@H](CN12)[C@@H]34 (stereo partly shown) [2c, 13-(pyrrolidine-1-yl)-matrine] | 256 ± 22.1 | 2.6 | 676 ± 49.1 | –
8 | O=C1CC(n2ccc3ccc(F)cc32)C[C@@H]2[C@H]3CCCN4CCC[C@@H](CN12)[C@@H]34 (stereo partly shown) [3k, 13-(6-fluoro-1H-indol-1-yl)-matrine] | 23.1 ± 5.3 | 3.4 | 78.1 ± 3.4 | –
9 | O=C1CC(n2ccc3ccccc32)C[C@@H]2[C@H]3CCCN4CCC[C@@H](CN12)[C@@H]34 (stereo partly shown) [3a, 13-(1H-indol-1-yl)-matrine] | 28.3 ± 3.9 | 3.8 | 107 ± 5.9 | –
10 | CN(C)C1CC(=O)N2CC3CCCN4CCCC(C34)C2C1 (stereo not shown) [2b, 13-dimethylamino-matrine] | 92.1 ± 1.9 | 6.8 | 624 ± 13.2 | –
11 | COc1ccc2c(ccn2C2CC(=O)N3C[C@@H]4CCCN5CCC[C@@H]([C@H]45)[C@H]3C2)c1 (stereo partly shown) [3e, 13-(5-methoxy-1H-indol-1-yl)-matrine] | 68.1 ± 5.5 | 1.9 | 128 ± 1.4 | –
12 | O=C1CCC[C@@H]2[C@H]3CCCN4CCC[C@@H](CN12)[C@@H]34 [Matrine] | 878 ± 68 | 2.8 | 2470 ± 103 | 56.6
13 | O=C1CC(n2ccc3ccc(Cl)cc32)C[C@@H]2[C@H]3CCCN4CCC[C@@H](CN12)[C@@H]34 (stereo partly shown) [3l, 13-(6-chloro-1H-indol-1-yl)-matrine] | 27 ± 1.4 | 1.7 | 45.8 ± 1.1 | –
14 | O=C1CC(n2ccc3c([N+](=O)[O-])cccc32)C[C@@H]2[C@H]3CCCN4CCC[C@@H](CN12)[C@@H]34 (stereo partly shown) [3d, 13-(4-nitro-1H-indol-1-yl)-matrine] | 4.3 ± 0.4 | 7.6 | 32.8 ± 2.7 | –
15 | O=C1CC(n2ccc3cc(Br)ccc32)C[C@@H]2[C@H]3CCCN4CCC[C@@H](CN12)[C@@H]34 (stereo partly shown) [3g, 13-(5-bromo-1H-indol-1-yl)-matrine] | 6.5 ± 1.2 | 2.8 | 18.2 ± 0.6 | –
16 | Cc1cn(C2CC(=O)N3C[C@@H]4CCCN5CCC[C@@H]([C@H]45)[C@H]3C2)c2ccccc12 (stereo partly shown) [3b, 13-(3-methyl-1H-indol-1-yl)-matrine] | 39 ± 0.6 | 2.4 | 95.1 ± 6.5 | –
17 | O=C1CC(n2ccc3cc([N+](=O)[O-])ccc32)C[C@@H]2[C@H]3CCCN4CCC[C@@H](CN12)[C@@H]34 (stereo partly shown) [3i, 13-(5-nitro-1H-indol-1-yl)-matrine] | 14.5 ± 1 | 4.5 | 65.4 ± 3.1 | –
18 | CNC1CC(=O)N2CC3CCCN4CCCC(C34)C2C1 (stereo not shown) [2a, 13-methylamino-matrine] | 65.3 ± 4.2 | 9.3 | 609 ± 29.8 | –
19 | O=C1CC(n2ccc3ccncc32)C[C@@H]2[C@H]3CCCN4CCC[C@@H](CN12)[C@@H]34 (stereo partly shown) [3n, 13-(1H-pyrrolo[2,3-c]pyridin-1-yl)-matrine] | 69.5 ± 8.2 | 1.2 | 84.2 ± 2.2 | –
